The record followed here is patent US6143719A, “Bradykinin analogs as selective thrombin inhibitors” (The Regents of the University of Michigan, priority 1996, dated 2000).

For one series, the system named is human platelets. The class given is cell-based. How it is done:
The cytoplasmic free Ca^2+ concentration ([Ca^2+ ]i) was measured using the fluorescent Ca^2 + indicator fura-2 (Molecular Probes, Inc., Eugene, Oreg.). Gel filtered platelets in Hepes-Tyrode's buffer were loaded with fura-2 by incubation at 37° C. with 1 μM fura-2/acetoxymethyl ester for 45 min according to the method of Rasmussen et al., J. Biol. Chem. 268, 14322 (1993). The labeled platelets were then re-gel filtered to remove any excess probe. Aliquots of the labeled platelet suspension were transferred into a quartz cuvette with a magnetic stirrer, which was then placed in a thermostatically controlled chamber at 37° C. in a fluorescence spectrophotometer (Dual Wave Length Shimazdu SP5000 Spectrofluorometer, Shimazdu USA, Pittsburgh, Pa.). Reagents were directly added to the cuvette. The excitation wave lengths varied between 340 and 380 nm. The fluorescence was measured by recording emitted light at 510 nm as reported by Fisher et al, Mol. Pharm. 35, 195 (1989). The minimum emission was determined on a 20 mM digitonin, 10 mM EGTA solubilized platelet sample; maximum emission was determined on the same sample with 10 mM Ca^2+ added. The intraplatelet free Ca^2+ concentration was calculated by the method of Grykiewicz et al., J. Biol. Chem. 260, 3440 (1985). The ratio of the fluorescence readings was calculated as R=340/380 nm and processed according to the equation [Ca^2+ ]i =KD ((R-Rmin)/Rmax -R))(Sf2 /Sb2) to determine the intraplatelet free Ca^2+ concentration. The KD for fura-2 was assumed to be 224 nM. Rmax and Rmin are the maximum and minimum fluorescence ratios measured at the end of the experiment, respectively; Sf2 and Sb2 are the fluorescence values at 380 nm in the absence and presence of saturating [Ca^2+ ], respectively.

For a further series, the system named is platelets. The class given is cell-based, human. Conditions: for inhibition of aggregation / inhibition of secretion: peptide 1 mM. How it is done: Fresh whole blood was collected and mixed with 0.013 M sodium citrate and platelet-rich plasma was prepared according to the method of Meloni et al., J. Biol. Chem. 266, 6786, 1991. Washed platelets were prepared by gel filtration over Sepharose 2B columns in Hepes-Tyrode's buffer (0.137 M NaCl, 3 mM KCl, 0.4 mM Na H2 PO4, 12 mM NaHCO3, 1 mM MgCl2, 14.7 mM Hepes containing 20 mM glucose and 0.2% bovine serum albumin, pH 7.35). Platelets for aggregation and secretion studies were incubated according to the method of Schmaier et al., Blood 56, 1013, 1980 with 5-[^14 C]hydroxytryptamine for 30 min at 37° C. The washed platelets (2×10^8 /ml, final concentration radiolabeled with 5-[^14 C]hydroxytryptamine) were added to a cuvette of an aggregometer (Chronolog Corp., Havertown, Pa.), standardized using the protocol of Meloni et al., supra. After the addition of ZnCl2, final concentration 50 μM, purified HK (1 μM) or various concentrations of the peptides (0.1 to 3 mM) or buffer alone was added to the cuvette. Once the baseline stabilized, α-thrombin [0.125 U/ml (1 nM) final concentration] was then added to initiate platelet activation. Stirred platelets were allowed to incubate with o-thrombin and additions for 1 min. In other experiments, platelets were stimulated with TRAP (0.625 to 2.5 μM), ADP (1-5 μM)(Sigma), collagen (1.25 μg/ml) (Horm, Munich, Germany), or U-46619 (1 μM)(Calbiochem Behring, San Diego, Calif.). Additional experiments were performed with washed platelets stimulated with γ-thrombin (1 nM) in the presence of human fibrinogen (100 mg/dl). Both γ-thrombin and human fibrinogen were purchased from Enzyme Research Laboratories, South Bend, Ind. At the conclusion of the incubation, the entire platelet sample was centrifuged at 10,900 xg (Model E, Beckman Instruments, Palo Alto, Calif.) over a 0.135 mM formaldehyde, 5 mM EDTA solution (1 part of formaldehyde-EDTA to 4 parts of platelet suspension) and stored on ice until an aliquot of the supernatant was assayed for 5-[^14 C]hydroxytryptamine secretion. Percent secretion was determined by the ratio of the loss of 5-[^14 C]hydroxytryptamine in the supernatant of the agonist-treated specimen to the loss of 5-[^14 C]hydroxytryptamine in the supernatant of the platelet lysate after the value of the control supernatant (i.e., the level of 5-[^14 C]hydroxytryptamine in a unstimulated sample) was subtracted from both.

The subject of a further series is washed platelets. Put plainly: 125I-α-thrombin binding to platelets. Set-up: species or system human. Particulars: peptide 1 mM. As to the method:
Gel filtered platelets were placed into polypropylene tubes and diluted with Hepes-Tyrode's buffer, containing 2 mM CaCl2 and 50 μM ZnCl2 and additions, to a final concentration of 2×10^8 platelets/ml. The reaction was started by the addition of 1 nM ^125 I-α-thrombin, which was prepared by using the iodogen technique as reported by Meloni et al., J. Biol. Chem. 266, 6786 (1991). Incubations were performed at 37° C. for specified times with various additions. After incubation, 50 μl aliquots were removed in triplicate for each experimental point and placed in polypropylene microcentrifuge tubes with an extended tip containing 200 μl of an oil mixture which consisted of 1 part Apiezon A oil to 9 parts of n-butylphthalate (Gustafson et al., J. Clin. Invest. 78, 810 (1986)), and centrifuged at room temperature for 2 min at 10,900× g in a microcentrifuge. (Model E, Beckman Instruments, Palo Alto, Calif.) The supernatant was removed and the tips amputated for placement in the gamma counter. The radioactivity present in the cell pellet was determined with an LKB Rack Gamma Counter (LKB Instruments, Inc., Gaithersburg, Md.). Nonspecific binding was measured in the presence of a 100-fold molar excess of α-thrombin.

Series [1] can be described thus: rabbit clearance study (plasma antigen by ELISA). The class given is in vivo, New Zealand white rabbits. How it is done:
(§1) Clearance studies have been performed in New Zealand white rabbits with BK analog SEQ ID NO:19. White rabbits weighing between 2.0 and 2.5 kg were premedicated according to the method of Michelson et al., J. Mol. Cell Cardiol. 20, 547 (1988) with 10 mg/kg 1 M xylazine and 10 mg/kg 1 M ketamine. After tracheostomy, intubation, and positive pressure ventilation done with room air (Harvard instruments), stage III surgical anesthesia was maintained with 20 mg/ml of intravenous pentobarbital. A carotid artery and a jugular vein were then exposed. A catheter was inserted into the exposed carotid artery for withdrawal of blood samples and monitoring the animal's blood pressure (Gould, Inc., Cardiovascular Products, Oxnard, Calif.). In a similar manner, a catheter was inserted into the exposed jugular vein for administering the anesthetic and BK analog SEQ ID NO:19.
(§2) For the clearance study, a single bolus of BK analog SEQ ID NO:19 was injected. The amount of BK analog SEQ ID NO:19 injected was calculated from the weight of the animal such that the blood volume was 1 mM with peptide. For example: for a 2.5 kg rabbit, 7% of its weight gives an estimated blood volume of 175 ml. Accordingly, 89 mg of BK analog was injected to make the 175 ml plasma sample 1 mM. Depending upon the size of the animal, 75 to 90 mg peptide was injected. Blood samples were collected at 2, 4, 6, 8, 10, 20, 30, 40, 60, 90, and 120 minute intervals after infusion into a 0.013 M sodium citrate anticoagulant solution. Plasma was prepared from each of the blood samples collected over time by centrifugation of the blood samples at 10,00 xg for two minutes. Aliquots of the plasmas were assayed for the presence of the BK analog SEQ ID NO:19 antigen by the ELISA technique using a MARKIT-M [1-5] BK assay from Dainippon Pharmaceutical Co., Ltd., Osaka, Japan.
Background: ELISA stands for enzyme-linked immunosorbent assay.

The next series has as its target α-thrombin (Homo sapiens, UniProt P00734). The experiment in a line: α-thrombin cleavage of thrombin receptor peptide NAT12 (HPLC). Conditions: peptide 1 mM, 8 nM α-thrombin. The class given is biochemical. How it is done: A further study was performed to determine whether BK analogs prevent α-thrombin from cleaving the thrombin receptor reported by Vu et al., Cell 64, 1057 (1991). A peptide, NAT12 (SEQ ID NO:2), which spans amino acids […] of the α-thrombin cleavage site on the thrombin receptor, was used to determine whether the BK analogs described herein blocked α-thrombin cleavage of the cloned receptor.
The cleavage study was performed according to the method of Molino et al., J. Biol. Chem. 270,11168(1995),inwhichNAT12(SEQ ID NO:2) was dissolved in a solution of 0.01 M NaH2 PO4 and 0.15 M NaCl, pH 7.4. […] Following incubation, each mixture was separated by applying the mixture to a Vyadec C-18 HPLC column in 0.1% trifluoroacetic acid and eluting the mixture with a gradient from 0% to 100% of 80% MeCN and 0.1% trifluoroacetic acid. The size of the separated products were confirmed by mass spectrometry.

A short description of series [2]: observations in rabbits after bolus injection. The class given is in vivo, New Zealand white rabbits. Conditions: single iv bolus. How it is done: as §1, §2
Setting [3] is: washed platelets, α-thrombin 1 nM, read-out: IC50 AGGREGATION (inhibition of α-thrombin-induced platelet aggregation).
The mark [4] stands for this setting: washed platelets, α-thrombin 1 nM, read-out: IC50 SECRETION (inhibition of α-thrombin-induced platelet secretion).
The mark [5] stands for this setting: aggregation and secretion not distinguished, read-out: IC50, inhibition of α-thrombin-induced platelet activation.

Like-named read-outs stand apart in the source and are kept apart here. Ends that are not written are not given here.

Regarding `CC[C@H](C)[C@H](NC(=O)[C@H](CCCNC(=N)N)NC(=O)[C@H](CO)NC(=O)[C@H](CO)NC(=O)[C@H](CCCNC(=N)N)NC(=O)[C@H](Cc1ccccc1)NC(=O)[C@@H]1CCCN1C(=O)[C@H](CO)NC(=O)[C@H](Cc1ccccc1)NC(=O)CNC(=O)[C@@H]1CCCN1C(=O)[C@@H]1CCCN1C(=O)[C@H](CCCNC(=N)N)NC(=O)[C@H](CCCCN)NC(=O)[C@@H](N)CCSC)C(=O)NCC(=O)O` [SEQ ID NO:14], in the series with human platelets, half-maximal inhibition (IC50) was put at 300 µM.

Consider “SEQ ID NO:8: BK analog that encompasses all or a portion of the native BK sequence (GFSPFRSSRIG)”, for which the concentration for half-maximal inhibition (IC50) (usually the concentration at which inhibition is half-maximal) in the series on platelets (setting [3]) is 850 µM; in the series with platelets (setting [4]), > 2000 µM. The “inhibition of 125I-α-thrombin binding to platelets” value in the series with washed platelets is on record as “did not block”.

Take “SEQ ID NO:7: BK analog of the mid or carboxy terminal regions of BK (FSPFRSS)”: the 50% inhibitory concentration (IC50) in the series on platelets (setting [5]) was ≥ 2000 µM; in the series on platelets (setting [3]), 2000 µM; with platelets (setting [4]) it was > 2000 µM.

As for Arg-Pro-Pro-Gly (RPPG) [SEQ ID NO:20], in the series with platelets, the inhibition of aggregation was found to be 95% and the inhibition of secretion stood at 25%.

For “SEQ ID NO:6: scrambled peptide having the same amino acid count as SEQ ID NO: 14 (FSGPKRSPIMGRPSFR) [reference compound]”, in the series on platelets, the inhibition of aggregation is 26% and the inhibition of secretion is 8%.

Take “SEQ ID NO:9: scrambled peptide having the amino acids of SEQ ID NO:19 (GPFPR) [reference compound]”: in the series with platelets, the inhibition of aggregation result is given as “did not inhibit” and the inhibition of secretion entry was “did not inhibit”.

Turning to “SEQ ID NO:5: scrambled peptide having the amino acids of SEQ ID NO:19 (FPRPG) [reference compound]”, in the series with platelets, the inhibition of aggregation result is reported as “did not inhibit” and the inhibition of secretion entry was “did not inhibit”.

On to “SEQ ID NO:16: BK analog of the mid or carboxy terminal regions of BK (PPGFSP)”, for which the half-maximal inhibitory concentration (IC50) in the series with platelets (setting [5]) was ≥ 2000 µM; with platelets (setting [3]), > 3000 µM; in the series with platelets (setting [4]), > 2000 µM.

With “RPPGF [SEQ ID NO:19, Arg-Pro-Pro-Gly-Phe]”, the “effect of ligating renal arteries on half-life” value in series [1] (Rabbit 2, renal arteries ligated) is reported as “did not lengthen the half-life”. Also, in series [1] (single iv bolus), the “half-life of antigen clearance in plasma” value was 6.6 min. For the same compound, in series [1] (single iv bolus, two minutes after infusion), the “peak plasma concentration after infusion” value was 0.120 mM. For the same compound, in series [1] (single iv bolus, two of three rabbits, ELISA), the peak plasma concentration after infusion amounted to 60 µg/mL. In addition, on α-thrombin, the “cleavage product peak 2, share of non-treated NAT12 peak area” value was 26% and the “cleavage product peak 3, share of non-treated NAT12 peak area” value came to 31%. Besides, the “reduction of NAT12 peak 1 area after α-thrombin” value at α-thrombin (one hour 37° C.) worked out at 57%. Further, in series [2], the “bleeding at the surgical sites of cutdowns and intubations” value was “no abnormal bleeding”; the blood pressure entry is “remained stable”; the platelet count entry is listed as “remained stable”; the pulse result is “remained stable”. In addition, in series [2], the “unfavorable effects following the bolus injection” value was “No unfavorable effects were observed”.
